# Calls of active or inactive are those of the source. The calls are words filed in the database; no cut-off is given here.
# What was measured:
# [1] = molecular target: Amyloid-beta precursor protein (Homo sapiens) (UniProt P05067); assay: Inhibition of recombinant human amyloid beta (1 to 42) aggregation at 100 uM measured every 10 mins for 48 hrs by thioflavin T fluorescence assay
# [2] = molecular target: Amyloid-beta precursor protein (Homo sapiens) (UniProt P05067); assay: Induction of morphological changes in recombinant human amyloid beta (1 to 42) assessed as loosely attached fibrils at 100 uM measured after 48 hrs by transmission electron microscopic method
# [3] = molecular target: Amyloid-beta precursor protein (Homo sapiens) (UniProt P05067); assay: Induction of morphological changes in recombinant human amyloid beta (1 to 42) assessed as less dense fibril at 100 uM measured after 48 hrs by transmission electron microscopic method
# [4] = molecular target: Amyloid-beta precursor protein (Homo sapiens) (UniProt P05067); assay: Induction of morphological changes in recombinant human amyloid beta (1 to 42) fibrils assessed as thinner fibril at 100 uM measured after 48 hrs by transmission electron microscopic method
# PC-12 [5] = assay: Cytotoxicity against rat PC12 cells assessed as reduction in cell viability up to 100 uM after 48 hrs by MTT assay; format: cell-based; settings: pc-12, 48 h
# [6] = molecular target: Amyloid-beta precursor protein (Homo sapiens) (UniProt P05067); assay: Induction of morphological changes in recombinant human amyloid beta (1 to 42) assessed as appearance of uneven fibrils at 100 uM measured after 48 hrs by transmission electron microscopic method
# [7] = molecular target: Amyloid-beta precursor protein (Homo sapiens) (UniProt P05067); assay: Induction of morphological changes in recombinant human amyloid beta (1 to 42) fibrils assessed as shorter fibril at 100 uM measured after 48 hrs by transmission electron microscopic method
# PC-12 [8] = assay: Neuroprotective activity against amyloid beta (1 to 42)-induced cell death in rat PC12 cells assessed as cell viability at 100 uM measured after 48 hrs by MTS assay relative to control; format: functional
# [9] = molecular target: Amyloid-beta precursor protein (Homo sapiens) (UniProt P05067); assay: Induction of morphological changes in recombinant human amyloid beta (1 to 42) assessed as appearance of punctate at 100 uM measured after 48 hrs by transmission electron microscopic method
# PC-12 [10] = assay: Cytotoxicity against rat PC12 cells assessed as reduction in cell viability at 100 uM after 48 hrs by MTT assay relative to control; format: cell-based; settings: pc-12, 48 h
# [11] = molecular target: Amyloid-beta precursor protein (Homo sapiens) (UniProt P05067); assay: Induction of morphological changes in recombinant human amyloid beta (1 to 42) assessed as appearance of small mesh-like aggregates at 100 uM measured after 48 hrs by transmission electron microscopic method
# [12] = molecular target: Amyloid-beta precursor protein (Homo sapiens) (UniProt P05067); assay: Induction of morphological changes in recombinant human amyloid beta (1 to 42) assessed as smoother fibrils at 100 uM measured after 48 hrs by transmission electron microscopic method
# PC-12 [13] = assay: Cytotoxicity against rat PC12 cells assessed as reduction in cell viability after 48 hrs by MTT assay; format: cell-based; settings: pc-12, 48 h
# PC-12 [14] = assay: Cytotoxicity against rat PC12 cells assessed as reduction in cell viability at 10 uM after 48 hrs by MTT assay relative to control; format: cell-based; settings: pc-12, 48 h
# Amyloid-beta precursor protein (Homo sapiens), sequence (P05067 whole entry): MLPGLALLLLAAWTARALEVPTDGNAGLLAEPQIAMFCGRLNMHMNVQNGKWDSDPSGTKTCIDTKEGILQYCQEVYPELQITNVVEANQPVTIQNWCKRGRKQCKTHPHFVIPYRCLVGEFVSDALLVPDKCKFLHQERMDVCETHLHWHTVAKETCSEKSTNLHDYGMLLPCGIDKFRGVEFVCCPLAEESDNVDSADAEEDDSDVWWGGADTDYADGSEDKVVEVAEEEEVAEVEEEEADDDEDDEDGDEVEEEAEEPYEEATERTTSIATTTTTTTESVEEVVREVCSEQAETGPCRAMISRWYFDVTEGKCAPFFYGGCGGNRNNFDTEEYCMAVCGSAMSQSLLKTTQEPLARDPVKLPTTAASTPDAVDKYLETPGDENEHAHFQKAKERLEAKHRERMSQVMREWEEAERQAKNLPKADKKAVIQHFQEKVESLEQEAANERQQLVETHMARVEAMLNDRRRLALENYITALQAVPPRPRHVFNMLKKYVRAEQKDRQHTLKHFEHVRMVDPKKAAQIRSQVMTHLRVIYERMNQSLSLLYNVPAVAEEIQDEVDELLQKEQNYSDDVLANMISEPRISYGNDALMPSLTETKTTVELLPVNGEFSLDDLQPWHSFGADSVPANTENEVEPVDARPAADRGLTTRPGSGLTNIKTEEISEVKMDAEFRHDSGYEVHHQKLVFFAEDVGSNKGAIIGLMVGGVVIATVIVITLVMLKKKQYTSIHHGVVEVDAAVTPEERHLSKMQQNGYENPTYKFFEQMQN
Compound,inhibition [1],Activity [2],Activity [3],Activity [4],Activity [6],Activity [7],Activity [9],Activity [11],Activity [12],Activity (PC-12 [5]),Activity (PC-12 [8]),Activity (PC-12 [10]),Activity (PC-12 [13]),Activity (PC-12 [14]),"viability at 100 µM (PC-12 [8]; PC-12, 48 h, read-out: Activity)"
Cc1ccc(NC(=O)CSc2nnc(-c3ccc(N)cc3)n2C)cc1,Active,–,Active,Active,Active,–,Active,Active,–,–,–,60%,–,–,–
Cc1cccc(CNC(=O)[C@@H](C)C2CCN(C(=O)c3ccc4oc(-c5ccccc5)nc4c3)CC2)c1,inactive,–,inactive,–,–,–,–,–,–,–,–,87%,Dose-dependent effect,35%,–
Cn1c(SCC(=O)Nc2ccccc2)nnc1-c1ccc(N)cc1,Active,–,Active,Active,Active,–,Active,Active,–,–,–,20 to 25%,–,–,73 to 78%

# Continued, in another order:
inhibition [1],Activity [2],Activity [3],Activity [4],Activity [6],Activity [7],Activity [9],Activity [11],Activity [12],Compound,Activity (PC-12 [5]),Activity (PC-12 [8]),Activity (PC-12 [10]),Activity (PC-12 [13]),Activity (PC-12 [14]),"viability at 100 µM (PC-12 [8]; PC-12, 48 h, read-out: Activity)"
Active,Active,Active,Active,Active,Active,–,–,–,COc1cc(C2N(Cc3ccccc3)CCN2Cc2ccccc2)ccc1OCc1ccccc1,Non-Toxic,Active,–,–,–,–
inactive,Active,Active,Active,–,Active,–,–,Active,c1ccc(COc2cccc(C3N(Cc4ccccc4)CCN3Cc3ccccc3)c2)cc1,Non-Toxic,Active,–,–,–,–
